Measurements from patent US12441743B2, “Spiro aromatic ring compound and use thereof” (Etern Biopharma (Shanghai) Co., Ltd., priority 2018, dated 2025).
Like-named read-outs stand apart in the source and are kept apart here.

Key:
[1] = target: T1, SHP2 E76A protein (Homo sapiens, UniProt Q06124, E76A); assay: SHP2 enzyme activity inhibition test (DiFMUP substrate, fluorescence); assay type: biochemical; details: 50 ng SHP2 E76A, 20 min with compound, then 10 uM DiFMUP 20 min at room temperature
T1 sequence (Q06124 1-593 E76A): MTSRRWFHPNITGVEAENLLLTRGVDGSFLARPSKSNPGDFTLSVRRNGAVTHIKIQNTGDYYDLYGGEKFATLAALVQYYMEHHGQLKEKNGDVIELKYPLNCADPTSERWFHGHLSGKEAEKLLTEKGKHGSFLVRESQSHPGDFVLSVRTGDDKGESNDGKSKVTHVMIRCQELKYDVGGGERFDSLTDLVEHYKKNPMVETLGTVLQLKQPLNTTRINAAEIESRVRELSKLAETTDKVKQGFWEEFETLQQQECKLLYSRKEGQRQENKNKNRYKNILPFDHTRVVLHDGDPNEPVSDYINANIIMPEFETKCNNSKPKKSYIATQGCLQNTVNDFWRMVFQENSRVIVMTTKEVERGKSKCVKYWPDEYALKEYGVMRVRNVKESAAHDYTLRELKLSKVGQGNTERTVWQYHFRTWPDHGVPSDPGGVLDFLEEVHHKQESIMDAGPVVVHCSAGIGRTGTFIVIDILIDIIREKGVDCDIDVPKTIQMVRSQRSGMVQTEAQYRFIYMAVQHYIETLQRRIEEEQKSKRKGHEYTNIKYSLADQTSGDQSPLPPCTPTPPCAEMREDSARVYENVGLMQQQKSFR

[2] = tested on: MV4-11 cells; assay: MV4-11 cell proliferation inhibition experiment (CellTiter-Glo); assay type: cell-based; details: Homo sapiens, read-out: Cell proliferation inhibition activity
Protocol: The number of living cells in the culture was determined by quantitative determination of intracellular ATP using CellTiter-Glo® Luminescent Cell Viability Assay kit.
In the first step, MV4-11 cells were inoculated into 96-well plates with a density of 2500 cells per well and a volume of 100 μL per well. The plates were placed in 37° C., 5% carbon dioxide incubator overnight.
In the second step, cells were treated with compounds. The compounds to be tested were diluted 3 times, and 8 concentration gradients were set up. Each well was added with a certain volume of DMSO or the compound to be tested, and each concentration was tested in 2 replicates, and the final concentration of DMSO was 0.5%. The plates were placed in 37° C., 5% carbon dioxide incubator for 72 h.
In the third step, cell viability of the control groups and the treatment groups was determined using CellTiter-Glo® Luminescent Cell Viability Assay kit (Promega, G7570). Each well was added with 50 uL CellTiter-Glo. The culture was mixed well, and incubated at room temperature for 10 min. Signals were read using EnSpire (Perkin Elmer). Inhibition percentages (%) were calculated by the following formula:
Inhibition percentage (%)=(1−signal value of compound treatment group/signal value of DMSO treatment group)*100.

[3] = Pharmacokinetics experiment, intragastric single dose; assay type: in vivo; details: mouse, plasma, male mice, oral administration dosage 5 mg/Kg; for half-life: read-out: Half-life T1/2 (converted); for Cmax: read-out: Maximum plasma concentration Cmax; for AUC: read-out: Plasma exposure AUC
Protocol: Pharmacokinetics of the compound of the disclosure was determined. The following method was used to determine the pharmacokinetic parameters of the compound of the disclosure. Healthy male adult mice were used in the study. Each group was intragastrically administered with a single dose of 5-100 mg/kg. Fasting lasted from 10 hours before administration to 4 hours after administration. Blood samples were collected at different time points after administration and the compound content in plasma was determined by LC-MS/MS. The relationship between plasma concentration and time was analyzed by professional software (winnonlin), and the pharmacokinetic parameters of the compounds were calculated. According to Table 3, the compounds of the disclosure have excellent pharmacokinetic properties.

[4] = MV4-11 cells, 72 h, CellTiter-Glo

IC50 [1] | IC50 [2, 4] | Compound | other results
8 nM | 36 nM | Nc1nccc(Sc2cnc(N3CCC4(CC3)Cc3cnccc3[C@H]4N)n3ccnc23)c1Cl [Compound 14, (S)-1′-(8-((2-amino-3-chloropyridin-4-yl)thio)imidazo[1,2-c]pyrimidin-5-yl)-5,7-dihydrospiro[cyclopenta[c]pyridine-6,4′-piperidine]-5-amine] | 
3 nM | 94 nM | Nc1nccc(Sc2cnc(N3CCC4(CC3)Cc3cnccc3[C@H]4N)n3cnnc23)c1Cl [Compound 15, (S)-1′-(8-((2-amino-3-chloropyridin-4-yl)thio)-[1,2,4]triazolo[4,3-c]pyrimidin-5-yl)-5,7-dihydrospiro[cyclopenta[c]pyridine-6,4′-piperidine]-5-amine] | 
10 nM | 35 nM | N#Cc1cccc2c1CC1(CCN(c3ncc(Sc4ccnc(N)c4Cl)c4nncn34)CC1)[C@@H]2N [Compound 17, (S)-1-amino-1′-(8-((2-amino-3-chloropyridin-4-yl)thio)-[1,2,4]triazolo[4,3-c]pyrimidin-5-yl)-1,3-dihydrospiro[indene-2,4′-piperidine]-4-nitrile] | 
7 nM | 1 nM | COc1cccc2c1CC1(CCN(c3ncc(Sc4ccnc(N)c4Cl)c4nncn34)CC1)[C@@H]2N [Compound 19, (S)-1′-(8-((2-amino-3-chloropyridin-4-yl)thio)-[1,2,4]triazolo[4,3-c]pyrimidin-5-yl)-4-methoxy-1,3-dihydrospiro[indene-2,4′-piperidine]-1-amine] | 
6 nM |  | Nc1nccc(Sc2cnc(N3CCC4(CC3)Cc3nccnc3[C@H]4N)n3cnnc23)c1Cl [Compound 20, (S)-1′-(8-((2-amino-3-chloropyridin-4-yl)thio)-[1,2,4]triazolo[4,3-c]pyrimidin-5-yl)-5,7-dihydrospiro[cyclopenta[b]pyrazine-6,4′-piperidine]-5-amine] | 
11 nM |  | N[C@@H]1c2ncccc2CC12CCN(c1ncc(Sc3cccnc3C(F)(F)F)c3nncn13)CC2 [Compound 21, (S)-1′-(8-((2-(trifluoromethyl)pyridin-3-yl)thio)-[1,2,4]-triazolo[4,3-c]pyrimidin-5-yl)-5,7-dihydrospiro[cyclopenta[b]pyridine-6,4′-piperidine]-7-amine] | 
9 nM |  | Nc1nccc(Sc2cnc(N3CCC4(CC3)Cc3sc(Cl)nc3[C@H]4N)n3ccnc23)c1Cl [Compound 22] | 
9 nM |  | N[C@@H]1c2cccnc2CC12CCN(c1ncc(Sc3ccnc4[nH]ncc34)c3nccn13)CC2 [Compound 23] | 
26 nM | 423 nM | C[C@@H]1OCC2(CCN(c3ncc(Sc4ccnc(N)c4Cl)n4nccc34)CC2)[C@@H]1N [Positive control aa, reference compound] | 

Continued, molecule first:

Compound | IC50 [1] | IC50 [2, 4] | other results
N[C@@H]1c2cccnc2CC12CCN(c1ncc(Sc3ccnc4c3CCO4)c3nccn13)CC2 [Compound 1] | 11 nM |  | IC50 ([2]; MV4-11, 72 h): 68 nM
Nc1nccc(Sc2cnc(N3CCC4(CC3)Cc3ccccc3[C@H]4N)n3cnnc23)c1Cl [Compound 2] | 4 nM | 11 nM | 
Nc1nccc(Sc2cnc(N3CCC4(CC3)Cc3ncccc3[C@H]4N)n3cnnc23)c1Cl [Compound 3, (S)-1′-(8-((2-amino-3-chloropyridin-4-yl)thio)-[1,2,4]triazolo[4,3-c]pyrimidin-5-yl)-5,7-dihydrospiro[cyclopenta[b]pyridine-6,4′-piperidine]-5-amine] | 11 nM | 99 nM | 
Nc1nccc(Sc2cnc(N3CCC4(CC3)Cc3ccccc3[C@H]4N)n3ccnc23)c1Cl [Compound 4, (S)-1′-(8-((2-amino-3-chloropyridin-4-yl)thio)imidazolo[1,2-c]pyrimidin-5-yl)-1,3-dihydrospirolindene-2,4′-piperidinel-1-amine] | 7 nM | 7 nM | bioavailability [3]: 34%; half-life [3]: 5.4 h; Cmax [3]: 7 µM; AUC [3]: 29 µM·h
CNc1nccc(Sc2cnc(N3CCC4(CC3)Cc3ncccc3[C@H]4N)n3ccnc23)c1Cl [Compound 5, (S)-1′-(8-((3-chloro-2-(methylamino)pyridin-4-yl)thio)imidazo[1,2-c]pyrimidin-5-yl)-5,7-dihydrospiro[cyclopenta[b]pyridine-6,4′-piperidine]-5-amine] | 5 nM |  | IC50 ([2]; MV4-11, 72 h): 6 nM
Nc1nccc(Sc2cnc(N3CCC4(CC3)Cc3ncccc3[C@H]4N)n3ccnc23)c1Cl [Compound 6, (S)-1′-(8-((2-amino-3-chloropyridin-4-yl)thio)imidazo[1,2-c]pyrimidin-5-yl)-5,7-dihydrospiro[cyclopenta[b]pyridine-6,4′-piperidine]-5-amine] | 6 nM | 4 nM | bioavailability [3]: 37%; half-life [3]: 3.1 h; Cmax [3]: 6 µM; AUC [3]: 35 µM·h
Nc1nccc(Sc2cnc(N3CCC4(CC3)Cc3ccncc3[C@H]4N)n3cnnc23)c1Cl [Compound 7, (5)-1′-(8-((2-amino-3-chloropyridin-4-yl)thio)-[1,2,4]triazolo[4,3-c]pyrimidin-5-yl)-5,7-dihydrospiro[cyclopenta[c]pyridine-6,4′-piperidine]-7-amine] | 3 nM | 29 nM | bioavailability [3]: 98%; half-life [3]: 3 h; Cmax [3]: 7.5 µM; AUC [3]: 43 µM·h
Nc1nccc(Sc2cnc(N3CCC4(CC3)Cc3ccncc3[C@H]4N)n3ccnc23)c1Cl [Compound 8, (S)-1′-(8-((2-amino-3-chloropyridin-4-yl)thio)imidazo[1,2-c]pyrimidin-5-yl)-5,7-dihydrospiro[cyclopenta[c]pyridine-6,4′-piperidine]-7-amine] | 10 nM | 33 nM | 
N[C@@H]1c2ncccc2CC12CCN(c1ncc(Sc3ccnc(Cl)c3Cl)c3nncn13)CC2 [Compound 9, (S)-1′-(8-(2,3-dichloropyridin-4-yl)thio-[1,2,4]-triazolo[4,3-c]pyrimidin-5-yl)-5,7-dihydrospiro[cyclopenta[b]pyridine-6,4′-piperidine]-7-amine] | 7 nM |  | IC50 ([2]; MV4-11, 72 h): 60 nM
Nc1nccc(Sc2cnc(N3CCC4(CC3)Cc3cccnc3[C@H]4N)n3cnnc23)c1Cl [Compound 11, (S)-1′-(8-((2-amino-3-chloropyridin-4-yl)thio)-[1,2,4]triazolo[4,3-c]pyrimidin-5-yl)-5,7-dihydrospiro[cyclopenta[b]pyridine-6,4′-piperidine]-7-amine] | 1 nM | 30 nM | 
Nc1nccc(Sc2cnc(N3CCC4(CC3)Cc3ccc(F)cc3[C@H]4N)n3cnnc23)c1Cl [Compound 12, (S)-1′-(8-((2-amino-3-chloropyridin-4-yl)thio)-[1,2,4]triazolo[4,3-c]pyrimidin-5-yl)-6-fluoro-1,3-dihydrospiro[indene-2,4′-piperidine]-1-amine] | 2 nM | 30 nM | 
Nc1nccc(Sc2cnc(N3CCC4(CC3)Cc3ccc(F)cc3[C@H]4N)n3ccnc23)c1Cl [Compound 13, (S)-1′-(8-((2-amino-3-chloropyridin-4-yl)thio)imidazo[1,2-c]pyrimidin-5-yl)-6-fluoro-1,3-dihydrospirolindene-2,4′-piperidinel-1-amine] | 1 nM | 1 nM | 
Nc1nccc(Sc2cnc(N3CCC4(CC3)Cc3c(O)cccc3[C@H]4N)n3cnnc23)c1Cl [Compound 16, (S)-1-amino-1′-(8-((2-amino-3-chloropyridin-4-yl)thio)-[1,2,4]triazolo[4,3-c]pyrimidin-5-yl)-1,3-dihydrospiro[indene-2,4′-piperidin]-4-ol] | 2 nM |  | IC50 ([2]; MV4-11, 72 h): 52 nM
